Target: CDK2 (human) (UniProt P24941)
Experiment: Cell-Based Assay
Conditions: a2780

| IC50 | Compound |
| --- | --- |
| > 20 µM | NC(=O)c1nn(-c2ccc(-c3ncc[nH]3)cc2)c2c1ccc1[nH]ncc12 |
| 1.65 µM | CC(=O)c1nn(-c2ccc(C)cc2)c2c1C(C)(C)Cc1[nH]ncc1-2 |
| 2.9 µM | CCCCNS(=O)(=O)c1ccc(-n2nc(C(=O)NC)c3ccc4[nH]ncc4c32)cc1 |
| > 20 µM | COc1ccc(-n2nc(C(=O)O)c3ccc4[nH]ncc4c32)cc1 |
| > 20 µM | NC(=O)c1nn(-c2ccc(Cl)cc2)c2c1CCc1[nH]ncc1-2 |
| > 20 µM | CS(=O)(=O)c1ccc(-n2nc(C(N)=O)c3c2-c2cn[nH]c2CC3)cc1 |
| > 20 µM | CNS(=O)(=O)c1ccc(-n2nc(C(N)=O)c3ccc4[nH]ncc4c32)cc1 |
| > 20 µM | NC(=O)c1nn(-c2ccc(-c3ncc[nH]3)cc2)c2c1CCc1[nH]ncc1-2 |
| > 20 µM | NC(=O)c1nn(-c2ccc(OC(F)(F)F)cc2)c2c1CCc1[nH]ncc1-2 |
| > 20 µM | CN1CCN(S(=O)(=O)c2ccc(-n3nc(C(N)=O)c4ccc5[nH]ncc5c43)cc2)CC1 |
| > 20 µM | N#Cc1ccc(-n2nc(C(N)=O)c3c2-c2cn[nH]c2CC3)cc1 |
| > 20 µM | CNS(=O)(=O)c1ccc(-n2nc(C(N)=O)c3c2-c2cn[nH]c2CC3)cc1 |
| 10.2 µM | CCCCNS(=O)(=O)c1ccc(-n2nc(C(=O)NC)c3c2-c2cn[nH]c2CC3)cc1 |
| 8.7 µM | C=CCONC(=O)c1nn(-c2ccc(S(=O)(=O)NCCC)cc2)c2c1ccc1[nH]ncc12 |
| > 20 µM | NC(=O)c1nn(-c2ccc(C(F)(F)F)cc2)c2c1CCc1[nH]ncc1-2 |
| > 20 µM | CC(=O)c1nn(-c2ccc(C)cc2)c2c1CCc1[nH]ncc1-2 |

| Compound | IC50 |
| --- | --- |
| NC(=O)c1nn(Cc2ccccc2)c2c1ccc1[nH]ncc12 | 2.98 µM |

Target: CDK2 (UniProt P24941)
Experiment: Enzyme Assay
Conditions: not given

| IC50 | Compound |
| --- | --- |
| 0.087 µM | CC(=O)c1nn(-c2ccc(C)cc2)c2c1C(C)(C)Cc1[nH]ncc1-2 |
| 0.2 µM | C=CCONC(=O)c1nn(-c2ccc(S(=O)(=O)NCCC)cc2)c2c1ccc1[nH]ncc12 |
